# Data: ChEMBL document CHEMBL4507289, “Data for DCP probe GSM1” (2021)
# Columns and labels:
# [1] = target: Cyclin-dependent kinase-like 3 (Homo sapiens) (UniProt Q8IVW4); settings: Compound concentration 1000.0 nM
# [2] = system: Receptor-type tyrosine-protein kinase FLT3 (Homo sapiens), P36888 [D835H]; settings: Compound concentration 1000.0 nM
# [3] = target: Macrophage colony-stimulating factor 1 receptor (Homo sapiens) (UniProt P07333); settings: Compound concentration 1000.0 nM
# [4] = target: Serine/threonine-protein kinase 16 (Homo sapiens) (UniProt O75716); settings: Compound concentration 1000.0 nM
# [5] = target: Vascular endothelial growth factor receptor 3 (Homo sapiens) (UniProt P35916); settings: Compound concentration 1000.0 nM
# [6] = target: Serine/threonine-protein kinase RIO3 (Homo sapiens) (UniProt O14730); settings: Compound concentration 1000.0 nM
# [7] = target: SRSF protein kinase 1 (Homo sapiens) (UniProt Q96SB4); settings: Compound concentration 1000.0 nM
# [8] = target: Phosphatidylinositol 5-phosphate 4-kinase type-2 gamma (Homo sapiens) (UniProt Q8TBX8); settings: Compound concentration 1000.0 nM
# [9] = target: Mitogen-activated protein kinase 1 (Homo sapiens) (UniProt P28482); settings: Compound concentration 1000.0 nM
# [10] = target: Dual specificity mitogen-activated protein kinase kinase 3 (Homo sapiens) (UniProt P46734); settings: Compound concentration 1000.0 nM
# Dual specificity mitogen-activated protein kinase kinase 3 (Homo sapiens), sequence (P46734 whole entry): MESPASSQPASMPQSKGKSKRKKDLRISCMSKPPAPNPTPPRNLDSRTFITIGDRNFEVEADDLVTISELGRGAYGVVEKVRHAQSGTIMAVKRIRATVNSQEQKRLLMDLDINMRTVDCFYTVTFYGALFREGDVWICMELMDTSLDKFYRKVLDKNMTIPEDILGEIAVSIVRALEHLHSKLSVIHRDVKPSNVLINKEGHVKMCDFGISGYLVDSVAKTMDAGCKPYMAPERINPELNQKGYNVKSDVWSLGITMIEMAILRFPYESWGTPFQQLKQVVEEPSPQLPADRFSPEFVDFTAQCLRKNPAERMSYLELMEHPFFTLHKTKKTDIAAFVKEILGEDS
# [11] = target: Misshapen-like kinase 1 (Homo sapiens) (UniProt Q8N4C8); settings: Compound concentration 1000.0 nM
# [12] = target: Serine/threonine-protein kinase 17A (Homo sapiens) (UniProt Q9UEE5); settings: Compound concentration 1000.0 nM
# Serine/threonine-protein kinase 17A (Homo sapiens), sequence (Q9UEE5 whole entry, canonical isoform): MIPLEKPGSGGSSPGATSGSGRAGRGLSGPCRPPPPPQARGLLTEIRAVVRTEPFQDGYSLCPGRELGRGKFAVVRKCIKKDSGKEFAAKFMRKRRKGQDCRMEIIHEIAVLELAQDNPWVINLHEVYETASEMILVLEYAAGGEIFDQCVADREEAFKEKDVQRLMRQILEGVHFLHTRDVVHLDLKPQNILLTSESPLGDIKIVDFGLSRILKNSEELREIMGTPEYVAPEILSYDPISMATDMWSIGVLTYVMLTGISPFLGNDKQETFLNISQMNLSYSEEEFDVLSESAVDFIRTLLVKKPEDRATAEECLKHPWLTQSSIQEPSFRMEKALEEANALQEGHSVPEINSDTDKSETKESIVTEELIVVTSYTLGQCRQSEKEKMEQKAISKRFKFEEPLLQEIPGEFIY
# [13] = target: Phosphorylase b kinase regulatory subunit alpha, liver isoform (Homo sapiens) (UniProt P46019); settings: Compound concentration 1000.0 nM
# [14] = target: Sodium-dependent serotonin transporter (Homo sapiens, UniProt P31645); settings: Compound concentration 10.0 uM
# [15] = target: D(4) dopamine receptor (Homo sapiens) (UniProt P21917); settings: Compound concentration 10.0 uM
# D(4) dopamine receptor (Homo sapiens), sequence (P21917 whole entry): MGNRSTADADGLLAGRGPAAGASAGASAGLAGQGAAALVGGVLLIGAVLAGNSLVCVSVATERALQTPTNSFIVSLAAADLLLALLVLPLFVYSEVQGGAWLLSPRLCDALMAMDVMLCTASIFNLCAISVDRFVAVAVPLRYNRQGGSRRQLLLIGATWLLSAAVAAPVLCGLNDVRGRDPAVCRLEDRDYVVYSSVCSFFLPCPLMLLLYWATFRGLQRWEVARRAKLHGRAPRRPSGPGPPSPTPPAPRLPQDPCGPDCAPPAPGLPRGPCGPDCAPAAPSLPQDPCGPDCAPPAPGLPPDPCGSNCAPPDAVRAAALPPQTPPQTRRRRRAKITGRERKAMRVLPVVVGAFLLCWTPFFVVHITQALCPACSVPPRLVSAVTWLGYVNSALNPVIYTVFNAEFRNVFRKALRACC
# [16] = target: Protein kinase C delta type (Homo sapiens) (UniProt Q05655); settings: Compound concentration 1000.0 nM
# Protein kinase C delta type (Homo sapiens), sequence (Q05655 whole entry, looked up): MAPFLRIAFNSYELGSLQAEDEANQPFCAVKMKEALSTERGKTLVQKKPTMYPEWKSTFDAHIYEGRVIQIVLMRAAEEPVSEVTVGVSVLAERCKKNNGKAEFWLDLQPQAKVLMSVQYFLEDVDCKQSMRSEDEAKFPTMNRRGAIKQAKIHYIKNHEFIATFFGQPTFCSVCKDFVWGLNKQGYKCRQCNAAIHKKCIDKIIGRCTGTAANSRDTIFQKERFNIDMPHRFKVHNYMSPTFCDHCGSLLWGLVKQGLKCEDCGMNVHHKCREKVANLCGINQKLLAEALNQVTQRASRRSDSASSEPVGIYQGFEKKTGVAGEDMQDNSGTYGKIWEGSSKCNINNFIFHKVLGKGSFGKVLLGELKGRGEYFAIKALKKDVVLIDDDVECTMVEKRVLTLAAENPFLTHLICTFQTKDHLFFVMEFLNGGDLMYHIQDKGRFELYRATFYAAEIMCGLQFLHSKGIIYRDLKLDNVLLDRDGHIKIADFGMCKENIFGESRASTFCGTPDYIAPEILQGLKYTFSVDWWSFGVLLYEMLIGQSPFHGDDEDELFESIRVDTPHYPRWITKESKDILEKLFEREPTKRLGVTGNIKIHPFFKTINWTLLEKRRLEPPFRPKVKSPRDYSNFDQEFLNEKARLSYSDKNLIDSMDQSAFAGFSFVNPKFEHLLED
# [17] = target: STE20/SPS1-related proline-alanine-rich protein kinase (Homo sapiens) (UniProt Q9UEW8); settings: Compound concentration 1000.0 nM
# [18] = target: Transient receptor potential cation channel subfamily M member 6 (Homo sapiens) (UniProt Q9BX84); settings: Compound concentration 1000.0 nM
# [19] = target: Homeodomain-interacting protein kinase 1 (Homo sapiens) (UniProt Q86Z02); settings: Compound concentration 1000.0 nM
# [20] = target: Dual specificity protein kinase CLK4 (Homo sapiens) (UniProt Q9HAZ1); settings: Compound concentration 1000.0 nM
# [21] = target: Mitogen-activated protein kinase 10 (Homo sapiens) (UniProt P53779); settings: Compound concentration 1000.0 nM
# Mitogen-activated protein kinase 10 (Homo sapiens), sequence (P53779 whole entry): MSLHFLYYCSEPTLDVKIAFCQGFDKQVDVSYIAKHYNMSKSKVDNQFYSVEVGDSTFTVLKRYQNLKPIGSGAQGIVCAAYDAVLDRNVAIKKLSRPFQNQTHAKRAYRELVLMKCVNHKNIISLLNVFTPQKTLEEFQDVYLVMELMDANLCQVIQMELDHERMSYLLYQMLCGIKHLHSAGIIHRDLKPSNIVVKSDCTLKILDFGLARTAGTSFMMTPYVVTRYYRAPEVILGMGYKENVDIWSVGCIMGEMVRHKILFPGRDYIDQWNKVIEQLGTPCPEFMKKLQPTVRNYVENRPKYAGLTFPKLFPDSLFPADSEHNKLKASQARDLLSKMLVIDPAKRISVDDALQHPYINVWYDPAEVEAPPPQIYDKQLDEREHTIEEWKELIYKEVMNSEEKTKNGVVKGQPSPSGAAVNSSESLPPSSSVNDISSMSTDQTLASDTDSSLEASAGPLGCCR
# [22] = target: Calcium/calmodulin-dependent protein kinase type 1D (Homo sapiens) (UniProt Q8IU85); settings: Compound concentration 1000.0 nM
# Calcium/calmodulin-dependent protein kinase type 1D (Homo sapiens), sequence (Q8IU85 whole entry, looked up): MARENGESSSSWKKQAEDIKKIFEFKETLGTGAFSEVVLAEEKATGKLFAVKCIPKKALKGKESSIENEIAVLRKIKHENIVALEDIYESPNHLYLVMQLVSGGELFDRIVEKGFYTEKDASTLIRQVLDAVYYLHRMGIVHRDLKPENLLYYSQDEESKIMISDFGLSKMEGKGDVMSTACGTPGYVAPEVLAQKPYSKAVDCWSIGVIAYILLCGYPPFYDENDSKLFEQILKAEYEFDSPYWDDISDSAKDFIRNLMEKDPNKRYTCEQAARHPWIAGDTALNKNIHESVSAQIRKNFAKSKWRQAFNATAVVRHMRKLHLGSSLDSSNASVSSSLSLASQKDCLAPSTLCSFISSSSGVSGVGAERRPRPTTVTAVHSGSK
# [23] = target: Serine/threonine-protein kinase 26 (Homo sapiens) (UniProt Q9P289); settings: Compound concentration 1000.0 nM
# Serine/threonine-protein kinase 26 (Homo sapiens), sequence (Q9P289 2-416 limits assumed): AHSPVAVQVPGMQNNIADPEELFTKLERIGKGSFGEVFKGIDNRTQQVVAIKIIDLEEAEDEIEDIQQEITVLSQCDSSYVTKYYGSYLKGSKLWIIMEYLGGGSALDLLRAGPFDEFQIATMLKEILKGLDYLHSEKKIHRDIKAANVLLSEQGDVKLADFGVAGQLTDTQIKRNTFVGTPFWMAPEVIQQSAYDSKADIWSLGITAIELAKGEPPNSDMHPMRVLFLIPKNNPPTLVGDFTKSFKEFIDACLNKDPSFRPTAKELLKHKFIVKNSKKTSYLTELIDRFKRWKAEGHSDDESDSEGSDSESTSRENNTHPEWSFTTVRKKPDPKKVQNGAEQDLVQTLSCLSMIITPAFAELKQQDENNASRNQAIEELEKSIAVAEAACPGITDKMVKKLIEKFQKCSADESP
# [24] = system: Receptor-type tyrosine-protein kinase FLT3 (Homo sapiens), P36888 [N841I]; settings: Compound concentration 1000.0 nM
# [25] = system: Receptor-type tyrosine-protein kinase FLT3 (Homo sapiens), P36888 [UNDEFINED MUTATION]; settings: Compound concentration 1000.0 nM
# [26] = target: Phosphatidylinositol 4-phosphate 5-kinase type-1 alpha (Homo sapiens) (UniProt Q99755); settings: Compound concentration 1000.0 nM
# [27] = target: Ribosomal protein S6 kinase alpha-2 (Homo sapiens) (UniProt Q15349); settings: Compound concentration 1000.0 nM
# [28] = target: Eukaryotic translation initiation factor 2-alpha kinase 1 (Homo sapiens) (UniProt Q9BQI3); settings: Compound concentration 1000.0 nM
# [29] = system: Tyrosine-protein kinase ABL1 (Homo sapiens), P00519 [Q252H]; settings: Compound concentration 1000.0 nM
# [30] = target: Cyclin-dependent kinase 15 (Homo sapiens) (UniProt Q96Q40); settings: Compound concentration 1000.0 nM
# [31] = target: Tyrosine-protein kinase ITK/TSK (Homo sapiens) (UniProt Q08881); settings: Compound concentration 1000.0 nM
# [32] = target: Proto-oncogene tyrosine-protein kinase ROS (Homo sapiens) (UniProt P08922); settings: Compound concentration 1000.0 nM
# [33] = target: Cyclin-dependent kinase 8 (Homo sapiens) (UniProt P49336); settings: Compound concentration 1000.0 nM
# [34] = target: Serine/threonine-protein kinase Nek6 (Homo sapiens) (UniProt Q9HC98); settings: Compound concentration 1000.0 nM
# [35] = target: Peripheral plasma membrane protein CASK (Homo sapiens) (UniProt O14936); settings: Compound concentration 1000.0 nM
# [36] = system: Tyrosine-protein kinase ABL1 (Homo sapiens), P00519 [M351T]; settings: Compound concentration 1000.0 nM
# [37] = target: Ephrin type-A receptor 7 (Homo sapiens) (UniProt Q15375); settings: Compound concentration 1000.0 nM
# Ephrin type-A receptor 7 (Homo sapiens), sequence (Q15375 28-998 limits assumed): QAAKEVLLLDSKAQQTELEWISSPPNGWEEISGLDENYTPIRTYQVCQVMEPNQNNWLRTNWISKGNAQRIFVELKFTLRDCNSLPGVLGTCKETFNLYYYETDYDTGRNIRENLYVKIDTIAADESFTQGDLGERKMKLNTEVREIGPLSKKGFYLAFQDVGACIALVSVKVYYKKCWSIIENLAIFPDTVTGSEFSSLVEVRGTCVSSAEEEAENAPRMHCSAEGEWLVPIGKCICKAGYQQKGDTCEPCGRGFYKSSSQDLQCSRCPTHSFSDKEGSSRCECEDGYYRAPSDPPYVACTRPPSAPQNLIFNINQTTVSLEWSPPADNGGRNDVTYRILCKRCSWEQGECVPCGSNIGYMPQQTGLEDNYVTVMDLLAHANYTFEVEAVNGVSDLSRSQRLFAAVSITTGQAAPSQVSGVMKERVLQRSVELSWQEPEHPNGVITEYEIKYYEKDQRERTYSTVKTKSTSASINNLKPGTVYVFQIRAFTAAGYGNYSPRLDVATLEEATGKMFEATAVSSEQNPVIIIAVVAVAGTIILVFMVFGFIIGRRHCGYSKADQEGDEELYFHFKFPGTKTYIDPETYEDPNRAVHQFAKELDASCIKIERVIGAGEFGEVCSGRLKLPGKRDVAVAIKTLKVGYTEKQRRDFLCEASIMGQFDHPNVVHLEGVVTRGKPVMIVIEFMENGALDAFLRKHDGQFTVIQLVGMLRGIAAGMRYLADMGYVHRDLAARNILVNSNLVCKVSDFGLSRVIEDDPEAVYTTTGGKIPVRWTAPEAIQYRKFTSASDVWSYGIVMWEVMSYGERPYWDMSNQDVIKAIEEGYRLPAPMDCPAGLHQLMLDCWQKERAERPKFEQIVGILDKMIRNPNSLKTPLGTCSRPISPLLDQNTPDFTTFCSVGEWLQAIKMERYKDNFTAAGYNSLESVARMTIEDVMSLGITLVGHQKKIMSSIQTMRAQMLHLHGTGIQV
# [38] = target: Dual specificity tyrosine-phosphorylation-regulated kinase 1B (Homo sapiens) (UniProt Q9Y463); settings: Compound concentration 1000.0 nM
# [39] = system: Mast/stem cell growth factor receptor Kit (Homo sapiens), P10721 [D816V]; settings: Compound concentration 1000.0 nM
# [40] = target: Cyclin-dependent kinase 4 (Homo sapiens) (UniProt P11802); settings: Compound concentration 1000.0 nM
# [41] = target: LIM domain kinase 2 (Homo sapiens) (UniProt P53671); settings: Compound concentration 1000.0 nM
# [42] = target: Alpha-2C adrenergic receptor (Homo sapiens) (UniProt P18825); settings: Compound concentration 10.0 uM
# [43] = target: Cytoplasmic tyrosine-protein kinase BMX (Homo sapiens) (UniProt P51813); settings: Compound concentration 1000.0 nM
# [44] = target: Calcium/calmodulin-dependent protein kinase type II subunit beta (Homo sapiens) (UniProt Q13554); settings: Compound concentration 1000.0 nM
# Calcium/calmodulin-dependent protein kinase type II subunit beta (Homo sapiens), sequence (Q13554 whole entry): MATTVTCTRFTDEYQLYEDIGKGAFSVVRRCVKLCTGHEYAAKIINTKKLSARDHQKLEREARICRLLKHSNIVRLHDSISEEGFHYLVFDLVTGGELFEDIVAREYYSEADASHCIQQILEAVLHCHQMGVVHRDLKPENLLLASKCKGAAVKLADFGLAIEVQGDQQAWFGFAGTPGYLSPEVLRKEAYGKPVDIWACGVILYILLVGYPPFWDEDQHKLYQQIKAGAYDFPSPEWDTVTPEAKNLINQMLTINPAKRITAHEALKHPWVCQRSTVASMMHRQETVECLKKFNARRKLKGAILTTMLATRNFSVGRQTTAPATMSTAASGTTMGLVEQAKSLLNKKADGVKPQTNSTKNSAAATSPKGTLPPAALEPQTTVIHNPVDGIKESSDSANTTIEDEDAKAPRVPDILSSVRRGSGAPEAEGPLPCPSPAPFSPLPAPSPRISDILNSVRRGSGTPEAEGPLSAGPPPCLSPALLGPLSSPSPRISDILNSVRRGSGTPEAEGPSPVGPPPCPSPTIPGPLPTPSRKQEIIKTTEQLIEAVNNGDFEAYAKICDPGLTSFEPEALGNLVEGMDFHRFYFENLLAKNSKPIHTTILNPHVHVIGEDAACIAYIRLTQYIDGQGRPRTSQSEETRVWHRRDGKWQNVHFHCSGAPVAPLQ
# [45] = target: Mitogen-activated protein kinase kinase kinase 20 (Homo sapiens) (UniProt Q9NYL2); settings: Compound concentration 1000.0 nM
compound,measurement,setting,value
COc1cc(-c2cn([C@H]3CCc4ccccc4N(CC(F)(F)F)C3=O)nn2)ccc1-n1ccc(C)n1,residual activity,[1],88%
same,residual activity,[2],100%
same,residual activity,[3],92%
same,residual activity,[4],100%
same,residual activity,[5],100%
same,residual activity,[6],100%
same,residual activity,[7],100%
same,residual activity,[8],100%
same,residual activity,[9],100%
same,residual activity,[10],89%
same,residual activity,[11],100%
same,residual activity,[12],100%
same,residual activity,[13],100%
same,inhibition,[14],90.6%
same,inhibition,[15],52.4%
same,residual activity,[16],98%
same,residual activity,[17],98%
same,residual activity,[18],100%
same,residual activity,[19],96%
same,residual activity,[20],80%
same,residual activity,[21],61%
same,residual activity,[22],100%
same,residual activity,[23],83%
same,residual activity,[24],100%
same,residual activity,[25],98%
same,residual activity,[26],96%
same,residual activity,[27],100%
same,residual activity,[28],93%
same,residual activity,[29],71%
same,residual activity,[30],100%
same,residual activity,[31],100%
same,residual activity,[32],100%
same,residual activity,[33],90%
same,residual activity,[34],100%
same,residual activity,[35],80%
same,residual activity,[36],64%
same,residual activity,[37],100%
same,residual activity,[38],100%
same,residual activity,[39],100%
same,residual activity,[40],90%
same,residual activity,[41],100%
same,inhibition,[42],9.04%
same,residual activity,[43],100%
same,residual activity,[44],97%
same,residual activity,[45],85%
COc1cc(-c2cn([C@H]3CCc4c(F)cccc4N(CC(F)(F)F)C3=O)nn2)ccc1-n1cnc(C)c1,residual activity,[1],100%
same,residual activity,[2],98%
same,residual activity,[3],86%
same,residual activity,[4],100%
same,residual activity,[5],100%
same,residual activity,[6],100%
same,residual activity,[7],100%
same,residual activity,[8],100%
same,residual activity,[9],100%
same,residual activity,[10],100%
same,residual activity,[11],84%
same,residual activity,[12],100%
same,residual activity,[13],100%
same,inhibition,[14],88.6%
same,inhibition,[15],-7.76%
same,residual activity,[16],100%
same,residual activity,[17],100%
same,residual activity,[18],100%
same,residual activity,[19],100%
same,residual activity,[20],100%
same,residual activity,[21],72%
same,residual activity,[22],100%
same,residual activity,[23],90%
same,residual activity,[24],99%
same,residual activity,[25],100%
same,residual activity,[26],100%
same,residual activity,[27],100%
same,residual activity,[28],100%
same,residual activity,[29],100%
same,residual activity,[30],100%
same,residual activity,[31],100%
same,residual activity,[32],100%
same,residual activity,[33],100%
same,residual activity,[34],100%
same,residual activity,[35],71%
same,residual activity,[36],95%
same,residual activity,[37],100%
same,residual activity,[38],100%
same,residual activity,[39],100%
same,residual activity,[40],100%
same,residual activity,[41],100%
same,inhibition,[42],38.3%
same,residual activity,[43],100%
same,residual activity,[44],100%
same,residual activity,[45],100%
